Assay results from US20050228046A1, “Alkylamine as an antimicrobial agent in ophthalmic compositions” (ADVANCED MEDICAL OPTICS, INC., priority 2004, published 2005).

Legend:
[1] = Contact lens uptake: content left in solution after shaking with lenses; type: physicochemical; conditions: Myristylamine with TPGS 20 fold; for remaining content left in solution, Acuvue / remaining content left in solution, Purevision: 15 ml solution, closed system shaken 6 days at room temperature; for remaining content left in solution, Acuvue: 2 Acuvue lenses; for remaining content left in solution, Purevision: 2 Purevision lenses; for remaining content left in solution, Without Lens: 15 ml system without lenses, shaken 6 days at room temperature
Procedure: The results in Table 9A show the remaining quaternary ammonium and tertiary amine content left in solution after a 15 ml-solution-2 lenses closed system has been shaken for 6 days at room temperature. […] The control which was run for this experiment, which includes the remaining ingredients in the solutions referenced in Table 9A are listed in Table 9B. As one of ordinary skill in the art would realize, the less quaternary ammonium or tertiary amine content remaining in solution after the shaking period, the higher the absorption by the lenses.

[2] = test system: Fusarium solani, ATCC 36031; test: Microbiology challenge test, log drop; type: cell-based
Procedure: (§1) The following is the procedure by which various antimicrobial agents and solutions are tested for their ability to reduce microbial loads over short periods of time, typically 24 hours and less. The procedure is a basic microbiology challenge test, which involves the inoculation of test product aliquots with a known number of viable cells of several test organisms, and assay for the survivors at various time intervals. The results are used to calculate log drops at soak times and construct kill-curves (graphs of survivors versus time) if desired.
(§2) Candida albicans, ATCC 10231, is one of five organisms specified per FDA and ISO/CLI tests for the testing of contact lens disinfectants (FDA Premarket Notification (510k) Guidance Document for Contact Lens Care Products, Appendix B, Apr. 1, 1997 and ISO/FDIS 14729: Ophthalmic optics-Contact lens care products-Microbiological requirements and test methods for products and regimens for hygienic management of contact lenses, January 2001). Contact lens disinfectants are also known as contact lens multi-purpose solutions when they are used for rinsing, cleaning, disinfection, storage and rewetting contact lenses. The five FDA/ISO specified test organisms are listed below: • Serratia marcescens, ATCC 13880 • Staphylococcus aureus, ATCC 6538 • Pseudomonas aeruginosa, ATCC 9027 • Candida albicans, ATCC 10231 • Fusarium solani, ATCC 36031
(§3) The specific test procedure for testing antimicrobial activity against the five FDA/ISO specified test organisms is as follows (C. albicans is provided as a specific example): Test samples are sterile-filtered through a 0.22 micron sterile filter into sterile plastic high density polyethylene bottles or plastic flasks. A 10-mL aliquot of test sample is aseptically transferred into a sterile polystyrene plastic test tube. Sterile saline (0.90 w/v % NaCl) with 0.05 w/v % Polysorbate 80 (SS+TWEEN) is transferred into a separate control tube. All samples and control are stored at 20-25° C. throughout the duration of the test.
(§4) Test cultures of Candida albicans, ATCC 10231 are prepared in the conventional manner. Candida albicans cultures are grown on agar slants from primary frozen, lyophilized or “Culti-loop®” cultures. Three mL of sterile 0.9% saline is used to gently dislodge culture growth from the agar surface. The resulting harvest is transferred to an appropriate screw cap test tube containing glass beads and vortexed for approximately one minute. The vortexed harvest is diluted as needed with sterile 0.9% saline to prepare the culture inoculum with a concentration of 1×10e8 CFU/mL. Fifty microliters of culture inoculum is added to 10.0 mL of each test sample and control, so that the final inoculum level is in the range of 1×10e5 to 1×10e6 CFU(colony forming units) per mL of Candida albicans, ATCC 10231. Each sample and control tube is vortexed briefly to disperse the inoculum. Contact time intervals for testing activity against Candida are typically 4 or 6 hours, to conform to the intended product label instructions for contact lens soak time.
(§5) Aerobic Plate Count Methods are performed in order to quantitate test samples for their levels of survivors. At appropriate assay times, 0.5 mL well-vortexed aliquots are removed from sample tubes and added to glass test tubes containing 4.5 mL Letheen Neutralizing Broth media (Berton, Dickinson and Company, Sparks, Md.). After a previously determined, validated neutralizing time period, these samples are diluted 10-fold through serial dilutions using glass test tubes containing 4.5 mL Letheen Neutralizing Broth media. Aliquots of 0.1 mL are removed from each dilution tube and spread-plate applied to agar plates containing Sabouraud Dextrose Agar (SAB)(Berton, Dickinson and Company, Sparks, Md.). 10^1 to 10^4 CFU/mL survivor levels are quantitated. […]

[3] = test system: Candida albicans, ATCC 10231; test: Microbiology challenge test, log drop; type: cell-based
Procedure: as §1, §2, §3, §4, §5

[4] = test system: Serratia marcescens, ATCC 13880; test: Microbiology challenge test, log drop; type: cell-based
Procedure: as §1, §2, §3, §4, §5

[5] = test system: Pseudomonas aeruginosa, ATCC 9027; test: Microbiology challenge test, log drop; type: cell-based
Procedure: as §1, §2, §3, §4, §5

[6] = test system: Staphylococcus aureus, ATCC 6538; test: Microbiology challenge test, log drop; type: cell-based
Procedure: as §1, §2, §3, §4, §5

[7] = test system: five FDA/ISO specified test organisms; test: Antimicrobial activity against the five-microbial panel, FDA/ISO disinfection criteria; type: cell-based; conditions: result in words
Procedure: The following is the procedure by which various antimicrobial agents and solutions are tested for their ability to reduce microbial loads over short periods of time, typically 24 hours and less. The procedure is a basic microbiology challenge test, which involves the inoculation of test product aliquots with a known number of viable cells of several test organisms, and assay for the survivors at various time intervals. The results are used to calculate log drops at soak times and construct kill-curves (graphs of survivors versus time) if desired. Candida albicans, ATCC 10231, is one of five organisms specified per FDA and ISO/CLI tests for the testing of contact lens disinfectants (FDA Premarket Notification (510k) Guidance Document for Contact Lens Care Products, Appendix B, Apr. 1, 1997 and ISO/FDIS 14729: Ophthalmic optics-Contact lens care products-Microbiological requirements and test methods for products and regimens for hygienic management of contact lenses, January 2001). Contact lens disinfectants are also known as contact lens multi-purpose solutions when they are used for rinsing, cleaning, disinfection, storage and rewetting contact lenses. The five FDA/ISO specified test organisms are listed below: • Serratia marcescens, ATCC 13880 • Staphylococcus aureus, ATCC 6538 • Pseudomonas aeruginosa, ATCC 9027 • Candida albicans, ATCC 10231 • Fusarium solani, ATCC 36031 Candida albicans is often the most resistant of the five organisms to commonly used cationic antimicrobial agents in contact lens multi-purpose solutions. Thus, achievement of adequate antimicrobial activity against Candida is often the most difficult task to pass a particular disinfection efficacy standard. FDA and ISO guidelines specify two disinfection efficacy standards, indicated in the table below: Stand Alone Disinfectant (Primary) Criteria: [table] The specific test procedure for testing antimicrobial activity against the five FDA/ISO specified test organisms is as follows (C. albicans is provided as a specific example): Test samples are sterile-filtered through a 0.22 micron sterile filter into sterile plastic high density polyethylene bottles or plastic flasks. A 10-mL aliquot of test sample is aseptically transferred into a sterile polystyrene plastic test tube. Sterile saline (0.90 w/v % NaCl) with 0.05 w/v % Polysorbate 80 (SS+TWEEN) is transferred into a separate control tube. All samples and control are stored at 20-25° C. throughout the duration of the test.

[8] = Cetylpyridinium Chloride 0.001 w/v %, TPGS 0, Tetronic 1307 0.05
[9] = Cetylpyridinium Chloride 0.001 w/v %, TPGS 0.025, Tetronic 1307 0.05
[10] = Table 8B: Cetylamine 0.0001 % w/w with PHMB 0.00002, Pluronic F87 0.05, pH 7.7
[11] = Table 8B: Cetylamine 0.0001 % w/w, PHMB 0.00, Pluronic F87 0.05, pH 7.7
[12] = Table 8B: Cetylamine 0.000125 % w/w, PHMB 0.00, Pluronic F87 0.05, pH 7.7
[13] = Table 8B: Cetylamine 0.0003 % w/w, PHMB 0.00, Pluronic F87 0.05, pH 7.7
[14] = Table 2B: Dodecylamine 0.0003 % w/w, Tetronic 1307 0.05, pH 7.8
[15] = Table 2B: Dodecylamine 0.0005 % w/w, Tetronic 1307 0.05, pH 7.8

**Q.** What does the source list for `CCCCCCCCCCCCCCCC[n+]1ccccc1` [Cetylpyridinium Chloride, reference compound]?
**A.** remaining content left in solution, Acuvue [1]: 3.3 ppm; remaining content left in solution, Purevision [1]: 1.3 ppm; remaining content left in solution, Without Lens [1]: 42.7 ppm; Log Drop [2, 8]: >4.08; Log Drop [2, 9]: 1.06; Log Drop [3, 8]: 4.41; Log Drop [3, 9]: 0.12

**Q.** What does the source list for `CCCCCCCCCCCCCCCCN` [Cetylamine]?
**A.** Log Drop [2, 10]: 1.14; Log Drop [2, 11]: 1.3; Log Drop [2, 12]: 2.76; Log Drop [2, 13]: 1.48; Log Drop [4, 10]: 4.18; Log Drop [4, 11]: 2.35; Log Drop [4, 12]: 3.76; Log Drop [4, 13]: 3.61; Log Drop [3, 10]: 1.51; Log Drop [3, 11]: 2.89; Log Drop [3, 12]: 1.97; Log Drop [3, 13]: 2.89; Log Drop [5, 10]: 4.43; Log Drop [5, 11]: 4.49; Log Drop [5, 12]: 3.95; Log Drop [5, 13]: 4.49; Log Drop [6, 10]: 4.81; Log Drop [6, 11]: 4.18; Log Drop [6, 12]: 4.81; Log Drop [6, 13]: 4.79

**Q.** For `CCCCCCCCCCCCN` [Dodecylamine, reference compound], which “remaining content left in solution, Acuvue” value [1] is on record?
**A.** 35.0 ppm

**Q.** And the “remaining content left in solution, Purevision” value [1]?
**A.** 14.1 ppm

**Q.** And the “remaining content left in solution, Without Lens” value [1]?
**A.** 44.4 ppm

**Q.** What about the antimicrobial activity [7] of the same molecule?
**A.** very weak antimicrobial activity

**Q.** What about the antimicrobial activity ([7]; listed as dodecylamine) of the same molecule?
**A.** not qualified as a disinfectant for contact lens care

**Q.** What about the Log Drop [2, 14] of the same molecule?
**A.** 0.09

**Q.** And the Log Drop [2, 15]?
**A.** 0.16

**Q.** And the Log Drop [4, 14]?
**A.** 0.46

**Q.** What about the Log Drop [4, 15] of the same molecule?
**A.** 0.46

**Q.** What about the Log Drop [3, 14] of the same molecule?
**A.** 0.91

**Q.** What about the Log Drop [3, 15] of the same molecule?
**A.** 1.77

**Q.** And the Log Drop [5, 14]?
**A.** 1.4

**Q.** And the Log Drop [5, 15]?
**A.** 1.36

**Q.** And the Log Drop [6, 14]?
**A.** 0.34

**Q.** And the Log Drop [6, 15]?
**A.** 0.12

**Q.** Which “remaining content left in solution, Acuvue” value [1] does the source give for `CCCCCCCCCCCCCC(=O)NCCCN(C)C` [Myristylamidopropyl-dimethylamine] here?
**A.** 18.2 ppm

**Q.** What about the “remaining content left in solution, Purevision” value [1] of the same molecule?
**A.** 4.7 ppm

**Q.** And the “remaining content left in solution, Without Lens” value [1]?
**A.** 43.5 ppm
